For orientation: IC50 means the midpoint of a concentration-inhibition curve. Low values mean greater potency in that assay, high ones weaker potency in that assay. By Hill coefficient is commonly meant the slope factor of the fitted curve.

The text below walks through data of ChEMBL document CHEMBL1129037 (J Med Chem, 1996).

Each structure is given as a SMILES string.

Sodium-dependent dopamine transporter (Rattus norvegicus), sequence (P23977 whole entry): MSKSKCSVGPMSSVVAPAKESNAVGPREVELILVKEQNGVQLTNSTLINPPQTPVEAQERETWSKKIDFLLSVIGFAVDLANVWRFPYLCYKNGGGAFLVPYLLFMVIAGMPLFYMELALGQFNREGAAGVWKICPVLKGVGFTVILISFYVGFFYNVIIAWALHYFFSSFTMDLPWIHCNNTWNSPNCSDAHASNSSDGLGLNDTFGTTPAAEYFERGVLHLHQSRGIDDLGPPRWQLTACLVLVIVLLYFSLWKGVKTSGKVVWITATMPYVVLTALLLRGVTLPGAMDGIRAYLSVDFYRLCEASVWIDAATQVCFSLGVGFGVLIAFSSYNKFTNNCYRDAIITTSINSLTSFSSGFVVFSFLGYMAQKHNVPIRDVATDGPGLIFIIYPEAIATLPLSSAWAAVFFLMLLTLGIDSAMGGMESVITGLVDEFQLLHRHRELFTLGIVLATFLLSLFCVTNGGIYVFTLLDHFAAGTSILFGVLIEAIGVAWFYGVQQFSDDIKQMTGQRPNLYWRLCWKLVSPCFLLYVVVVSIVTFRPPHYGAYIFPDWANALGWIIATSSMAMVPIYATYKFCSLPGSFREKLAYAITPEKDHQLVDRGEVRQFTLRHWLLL

In one experiment the target is T1, Sodium-dependent dopamine transporter (Rattus norvegicus, UniProt P23977). Nature of the experiment: Inhibition of [3H]WIN-35428 binding to dopamine transporter using rat striatal tissue. The class given is tissue-based, Striatum.
T1 sequence (P23977 whole entry): as above
As to `COC(=O)[C@@H](c1cccc(Br)c1)[C@@H]1CCCCN1`, the half-inhibitory concentration (IC50) stood at 4.2 nM. That is a single-digit nanomolar value.

The compound `COC(=O)[C@@H](c1ccc(F)cc1)[C@@H]1CCCCN1` yielded an IC50 of 35 nM.

Compound `COC(=O)[C@@H](c1cccc(O)c1)[C@@H]1CCCCN1` returned a half-inhibitory concentration (IC50) of 321 nM.

For the compound `COC(=O)[C@@H](c1ccccc1Br)[C@@H]1CCCCN1`, the IC50 is 1870 nM.

The compound `COC(=O)[C@@H](c1ccccc1Cl)[C@@H]1CCCCN1` displayed an IC50 of 1950 nM.

Compound `COC(=O)[C@@H](c1ccc(Cl)cc1)[C@@H]1CCCCN1` gave an IC50 of 20.6 nM. Compared with the last compound, the IC50 is about 95-fold lower.

Compound `COC(=O)C(c1cccc(Cl)c1)C1CCCCN1` (single isomer, unassigned) had an IC50 of 378 nM.

The compound `COC(=O)[C@@H](c1cccc(Cl)c1)[C@@H]1CCCCN1` came in with an IC50 of 5.1 nM.

For `COC(=O)[C@@H](c1ccc(Cl)c(Cl)c1)[C@@H]1CCCCN1`, the 50% inhibitory concentration (IC50) stood at 5.3 nM.

`COC(=O)[C@@H](c1ccc(N)cc1)[C@@H]1CCCCN1` had an IC50 of 34.6 nM.

`COC(=O)[C@@H](c1ccc(Br)cc1)[C@@H]1CCCCN1` had an IC50 of 6.9 nM.

In turn, `COC(=O)[C@@H](c1ccc(I)cc1)[C@@H]1CCCCN1` yielded an IC50 of 14 nM.

Compound `COC(=O)[C@@H](c1cccc(N)c1)[C@@H]1CCCCN1` registered a 50% inhibitory concentration (IC50) of 265 nM.

Turning to `COC(=O)C(c1ccccc1Br)C1CCCCN1` (single isomer, unassigned), the IC50 is 38100 nM.

Compound `COC(=O)[C@@H](c1cccc(F)c1)[C@@H]1CCCCN1` returned a half-maximal inhibitory concentration (IC50) of 40.5 nM.

`COC(=O)[C@@H](c1cccc(C)c1)[C@@H]1CCCCN1` came in with a half-inhibitory concentration (IC50) of 21.4 nM. Compared with the last compound, the IC50 is about 1.9-fold lower.

Regarding `COC(=O)C(c1ccccc1OC)C1CCCCN1` (single isomer, unassigned), the IC50 is 139000 nM.

With `COC(=O)[C@@H](c1ccccc1F)[C@@H]1CCCCN1`, the IC50 came to 1420 nM.

Regarding `COC(=O)[C@@H](c1ccc(O)cc1)[C@@H]1CCCCN1`, the IC50 is 98 nM.

Consider `COC(=O)[C@@H](c1ccc(OC)c(OC)c1)[C@@H]1CCCCN1`, for which the concentration for half-maximal inhibition (IC50) was found to be 810 nM.

With `COC(=O)C(c1ccccc1Cl)C1CCCCN1` (single isomer, unassigned), the half-maximal inhibitory concentration (IC50) stood at 52500 nM. Against the preceding compound, the IC50 is about 65-fold higher.

The compound `COC(=O)[C@@H](c1ccc(C)cc1)[C@@H]1CCCCN1` registered a concentration for half-maximal inhibition (IC50) of 33 nM.

`COC(=O)[C@@H](c1ccc([N+](=O)[O-])cc1)[C@@H]1CCCCN1` yielded an IC50 of 494 nM.

The target in the next experiment is T1, Sodium-dependent dopamine transporter. Nature of the experiment: Inhibitory activity against [3H]dopamine uptake in rat striatal tissue. The class given is functional, tissue-based, Striatum.
In turn, `COC(=O)[C@@H](c1cccc(Br)c1)[C@@H]1CCCCN1` yielded an IC50 of 12.8 nM.

`COC(=O)[C@@H](c1ccc(F)cc1)[C@@H]1CCCCN1` yielded an IC50 of 142 nM.

`COC(=O)[C@@H](c1cccc(O)c1)[C@@H]1CCCCN1` returned an IC50 of 790 nM.

As for `COC(=O)[C@@H](c1ccccc1Br)[C@@H]1CCCCN1`, half-maximal inhibition (IC50) required 3410 nM.

As to `COC(=O)[C@@H](c1ccccc1O)[C@@H]1CCCCN1`, 35800 nM corresponded to half-maximal inhibition (IC50).

`COC(=O)[C@@H](c1ccccc1Cl)[C@@H]1CCCCN1` gave a half-maximal inhibitory concentration (IC50) of 2660 nM.

Turning to `COC(=O)[C@@H](c1ccc(Cl)cc1)[C@@H]1CCCCN1`, the IC50 stood at 73.8 nM.

`COC(=O)C(c1cccc(Cl)c1)C1CCCCN1` (single isomer, unassigned) registered an IC50 of 1540 nM. Against the preceding compound, the IC50 is about 21-fold higher.

For the compound `COC(=O)[C@@H](c1cccc(Cl)c1)[C@@H]1CCCCN1`, the half-maximal inhibitory concentration (IC50) was found to be 23 nM.

`COC(=O)[C@@H](c1ccc(Cl)c(Cl)c1)[C@@H]1CCCCN1`: the IC50 amounted to 7 nM.

Compound `COC(=O)[C@@H](c1ccc(N)cc1)[C@@H]1CCCCN1` yielded a half-inhibitory concentration (IC50) of 115 nM. Against the preceding compound, the IC50 is about 16-fold higher.

The compound `COC(=O)[C@@H](c1ccc(Br)cc1)[C@@H]1CCCCN1` gave an IC50 of 26.3 nM.

Consider `COC(=O)[C@@H](c1ccc(I)cc1)[C@@H]1CCCCN1`, for which half-maximal inhibition (IC50) required 64.5 nM.

Compound `COC(=O)[C@@H](c1ccccc1OC)[C@@H]1CCCCN1` registered an IC50 of 81000 nM.

Regarding `COC(=O)[C@@H](c1cccc(N)c1)[C@@H]1CCCCN1`, the IC50 came out at 578 nM.

Compound `COC(=O)C(c1ccccc1Br)C1CCCCN1` (single isomer, unassigned) returned an IC50 of 59000 nM.

Compound `COC(=O)[C@@H](c1cccc(F)c1)[C@@H]1CCCCN1` yielded a half-inhibitory concentration (IC50) of 160 nM.

Compound `COC(=O)[C@@H](c1cccc(C)c1)[C@@H]1CCCCN1` displayed an IC50 of 100 nM. This IC50 is about 1.6-fold lower than that of the compound before.

In the case of `COC(=O)C(c1ccccc1OC)C1CCCCN1` (single isomer, unassigned), the half-maximal inhibitory concentration (IC50) is 290000 nM.

In turn, `COC(=O)[C@@H](c1ccccc1F)[C@@H]1CCCCN1` had a half-inhibitory concentration (IC50) of 2900 nM.

The compound `COC(=O)[C@@H](c1ccc(O)cc1)[C@@H]1CCCCN1` came in with an IC50 of 340 nM.

Compound `COC(=O)[C@@H](c1ccc(OC)c(OC)c1)[C@@H]1CCCCN1` returned an IC50 of 1760 nM.

`COC(=O)C(c1ccccc1Cl)C1CCCCN1` (single isomer, unassigned) came in with an IC50 of 61000 nM. Against the preceding compound, the IC50 is about 35-fold higher.

As to `COC(=O)[C@@H](c1ccc(C)cc1)[C@@H]1CCCCN1`, half-maximal inhibition (IC50) required 126 nM.

On to `COC(=O)[C@@H](c1ccc([N+](=O)[O-])cc1)[C@@H]1CCCCN1`, for which inhibition was half-maximal at 1610 nM (IC50).

The next experiment addresses Sodium-dependent dopamine transporter (Rattus norvegicus) (UniProt P23977).
Description: The compound Hill coefficient value determined for WIN-Binding
`COC(=O)[C@@H](c1cccc(Br)c1)[C@@H]1CCCCN1` came in with a Hill coefficient of 1.14.

Turning to `COC(=O)[C@@H](c1ccc(F)cc1)[C@@H]1CCCCN1`, the Hill coefficient was 0.97.

Take `COC(=O)[C@@H](c1cccc(O)c1)[C@@H]1CCCCN1`: the Hill coefficient turned out to be 1.09.

As for `COC(=O)[C@@H](c1ccccc1Br)[C@@H]1CCCCN1`, the Hill coefficient turned out to be 0.93.

Regarding `COC(=O)[C@@H](c1ccccc1O)[C@@H]1CCCCN1`, the Hill coefficient amounted to 1.04.

For `COC(=O)[C@@H](c1ccccc1Cl)[C@@H]1CCCCN1`, the Hill coefficient is 0.98.

In turn, `COC(=O)[C@@H](c1ccc(C(C)(C)C)cc1)[C@@H]1CCCCN1` yielded a Hill coefficient of 1.12.

In turn, `COC(=O)[C@@H](c1ccc(Cl)cc1)[C@@H]1CCCCN1` registered a Hill coefficient of 1.17.

`COC(=O)C(c1cccc(Cl)c1)C1CCCCN1` (single isomer, unassigned) yielded a Hill coefficient of 1.03.

Consider `COC(=O)[C@@H](c1cccc(Cl)c1)[C@@H]1CCCCN1`, for which the Hill coefficient amounted to 0.95.

As for `COC(=O)[C@@H](c1ccc(Cl)c(Cl)c1)[C@@H]1CCCCN1`, the Hill coefficient stood at 2.07.

Compound `COC(=O)[C@@H](c1ccc(N)cc1)[C@@H]1CCCCN1` came in with a Hill coefficient of 0.96.

`COC(=O)[C@@H](c1ccc(Br)cc1)[C@@H]1CCCCN1` gave a Hill coefficient of 1.15.

Compound `COC(=O)[C@@H](c1ccc(I)cc1)[C@@H]1CCCCN1` had a Hill coefficient of 1.1.

`COC(=O)[C@@H](c1ccccc1OC)[C@@H]1CCCCN1` came in with a Hill coefficient of 0.94.

On to `COC(=O)[C@H]1[C@@H](OC(=O)c2ccccc2)C[C@@H]2CC[C@H]1N2C`, for which the Hill coefficient came to 1.03.

`COC(=O)[C@@H](c1cccc(N)c1)[C@@H]1CCCCN1` displayed a Hill coefficient of 1.06.

The compound `COC(=O)C(c1ccc(C(C)(C)C)cc1)C1CCCCN1` (single isomer, unassigned) gave a Hill coefficient of 1.1.

On to `COC(=O)C(c1ccccc1Br)C1CCCCN1` (single isomer, unassigned), for which the Hill coefficient is 1.06.

For the compound `COC(=O)[C@@H](c1cccc(F)c1)[C@@H]1CCCCN1`, the Hill coefficient came out at 0.85.

`COC(=O)[C@@H](c1cccc(C)c1)[C@@H]1CCCCN1`: the Hill coefficient came to 1.01.

Compound `COC(=O)C(c1ccccc1OC)C1CCCCN1` (single isomer, unassigned) registered a Hill coefficient of 0.87.

In turn, `COC(=O)[C@@H](c1ccccc1F)[C@@H]1CCCCN1` gave a Hill coefficient of 0.9.

`COC(=O)[C@@H](c1ccc(O)cc1)[C@@H]1CCCCN1`: the Hill coefficient was 1.07.

As to `COC(=O)[C@@H](c1ccc(OC)c(OC)c1)[C@@H]1CCCCN1`, the Hill coefficient was determined as 1.12.

Take `COC(=O)C(c1ccccc1Cl)C1CCCCN1` (single isomer, unassigned): the Hill coefficient amounted to 0.92.

On to `COC(=O)[C@@H](c1ccc(C)cc1)[C@@H]1CCCCN1`, for which the Hill coefficient came out at 1.05.

Take `COC(=O)[C@@H](c1ccc([N+](=O)[O-])cc1)[C@@H]1CCCCN1`: the Hill coefficient worked out at 1.17.

Compound `COC(=O)[C@@H](c1ccccc1)[C@@H]1CCCCN1` returned a Hill coefficient of 0.9.
